Measured values: ChEMBL document CHEMBL1201861, “Genomics of Drug Sensitity in Cancer screening data, Wellcome Trust Sanger Institute”
pIC50: −log10 of the molar value.

Legend:
Experiment in all cases: cells
Format in all cases: functional, cell-based, Homo sapiens
[1] = tested on: COR-L105; conditions: Homo sapiens, COR-L105;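 further: cell growth inhibition determined with a viability assay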
Description: SANGER: Inhibition of human COR-L105 cell growth in a cell viability assay.

[2] = tested on: Calu-3; conditions: Homo sapiens, Calu-3;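 further: growth inhibition of human Calu-3 cells, determined with a cell viability assay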
Description: SANGER: Inhibition of human Calu-3 cell growth in a cell viability assay.

[3] = tested on: D-423MG; conditions: Homo sapiens, D-423MG
Description: SANGER: Inhibition of human D-423MG cell growth in a cell viability assay.

[4] = tested on: EPLC-272H; conditions: Homo sapiens, EPLC-272H
Description: SANGER: Inhibition of human EPLC-272H cell growth in a cell viability assay.

[5] = tested on: HLE; conditions: Homo sapiens, HLE;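 further: growth inhibition of human HLE cells, read out by a cell viability assay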
Description: SANGER: Inhibition of human HLE cell growth in a cell viability assay.

[6] = tested on: HSC-2; conditions: Homo sapiens, HSC-2;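 further: growth inhibition of human HSC-2 cells, read out by a cell viability assay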
Description: SANGER: Inhibition of human HSC-2 cell growth in a cell viability assay.

[7] = tested on: HT-1376; conditions: Homo sapiens, HT-1376
Description: SANGER: Inhibition of human HT-1376 cell growth in a cell viability assay.

[8] = tested on: HT-29; conditions: Homo sapiens, HT-29;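 further: growth inhibition of human HT-29 cells, read out by a cell viability assay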
Description: SANGER: Inhibition of human HT-29 cell growth in a cell viability assay.

[9] = tested on: HT55; conditions: Homo sapiens, HT55;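 further: cell viability readout measuring growth inhibition of human HT55 cells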
Description: SANGER: Inhibition of human HT55 cell growth in a cell viability assay.

[10] = tested on: JEG-3; conditions: Homo sapiens, JEG-3;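 further: growth inhibition of human JEG-3 cells, read out with a cell viability assay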
Description: SANGER: Inhibition of human JEG-3 cell growth in a cell viability assay.

[11] = tested on: MFE-280; conditions: Homo sapiens, MFE-280;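 further: growth inhibition of MFE-280 cells, determined with a cell viability readout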
Description: SANGER: Inhibition of human MFE-280 cell growth in a cell viability assay.

[12] = tested on: NB14; conditions: Homo sapiens, NB14;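 further: growth inhibition of NB14 cells measured with a cell viability assay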
Description: SANGER: Inhibition of human NB14 cell growth in a cell viability assay.

[13] = tested on: NCI-H1573; conditions: Homo sapiens, NCI-H1573;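 further: growth inhibition of NCI-H1573 cells, read out with a cell viability assay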
Description: SANGER: Inhibition of human NCI-H1573 cell growth in a cell viability assay.

[14] = tested on: NCI-H1792; conditions: Homo sapiens, NCI-H1792;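 further: growth inhibition of human NCI-H1792 cells, read out as cell viability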
Description: SANGER: Inhibition of human NCI-H1792 cell growth in a cell viability assay.

[15] = tested on: NCI-H1993; conditions: Homo sapiens, NCI-H1993;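 further: growth inhibition of the cancer cell line, assessed with a cell viability assay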
Description: SANGER: Inhibition of human NCI-H1993 cell growth in a cell viability assay.

[16] = tested on: NCI-H2122; conditions: Homo sapiens, NCI-H2122;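 further: growth inhibition of the cells, read out with a cell viability assay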
Description: SANGER: Inhibition of human NCI-H2122 cell growth in a cell viability assay.

[17] = tested on: NCI-H2342; conditions: Homo sapiens, NCI-H2342;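 further: growth inhibition of the cancer cell line, determined with a cell viability assay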
Description: SANGER: Inhibition of human NCI-H2342 cell growth in a cell viability assay.

[18] = tested on: NCI-H441; conditions: Homo sapiens, NCI-H441;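 further: growth inhibition of NCI-H441 cells, read out with a cell viability assay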
Description: SANGER: Inhibition of human NCI-H441 cell growth in a cell viability assay.

[19] = tested on: NCI-H596; conditions: Homo sapiens, NCI-H596;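 further: growth inhibition of NCI-H596 cells, read out with a cell viability assay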
Description: SANGER: Inhibition of human NCI-H596 cell growth in a cell viability assay.

[20] = tested on: NCI-H661; conditions: Homo sapiens, NCI-H661;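 further: cell viability assay read-out, IC50 being the concentration that inhibits growth of the cells by half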
Description: SANGER: Inhibition of human NCI-H661 cell growth in a cell viability assay.

[21] = tested on: NCI-H810; conditions: Homo sapiens, NCI-H810;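 further: IC50 reflects inhibition of cancer cell line growth, read out with a cell viability assay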
Description: SANGER: Inhibition of human NCI-H810 cell growth in a cell viability assay.

[22] = tested on: P12-Ichikawa; conditions: Homo sapiens, P12-Ichikawa
[23] = tested on: RMG-I; conditions: Homo sapiens, RMG-I;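 further: growth inhibition of human RMG-I cells, read out with a cell viability assay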
Description: SANGER: Inhibition of human RMG-I cell growth in a cell viability assay.

[24] = tested on: RO82-W-1; conditions: Homo sapiens, RO82-W-1;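 further: growth inhibition of human RO82-W-1 cells, measured with a cell viability assay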
Description: SANGER: Inhibition of human RO82-W-1 cell growth in a cell viability assay.

[25] = tested on: RPMI-7951; conditions: Homo sapiens, RPMI-7951
Description: SANGER: Inhibition of human RPMI-7951 cell growth in a cell viability assay.

[26] = tested on: SAS; conditions: Homo sapiens, SAS;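 further: growth inhibition of SAS cells, read out with a cell viability assay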
Description: SANGER: Inhibition of human SAS cell growth in a cell viability assay.

[27] = tested on: SK-LU-1; conditions: Homo sapiens, SK-LU-1;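 further: cell viability assay measuring growth inhibition of human SK-LU-1 cells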
Description: SANGER: Inhibition of human SK-LU-1 cell growth in a cell viability assay.

[28] = tested on: SK-N-AS; conditions: Homo sapiens, SK-N-AS;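 further: growth inhibition of human SK-N-AS cells, measured with a cell viability assay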
Description: SANGER: Inhibition of human SK-N-AS cell growth in a cell viability assay.

[29] = tested on: SW1088; conditions: Homo sapiens, SW1088;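 further: growth inhibition of human SW1088 cells, read out by a cell viability assay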
Description: SANGER: Inhibition of human SW1088 cell growth in a cell viability assay.

[30] = tested on: SW948; conditions: Homo sapiens, SW948;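 further: growth inhibition of SW948 cells, read out with a cell viability assay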
Description: SANGER: Inhibition of human SW948 cell growth in a cell viability assay.

[31] = tested on: T84; conditions: Homo sapiens, T84;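 further: growth inhibition measured with a cell viability readout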
Description: SANGER: Inhibition of human T84 cell growth in a cell viability assay.

[32] = tested on: AGS; conditions: Homo sapiens, AGS;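 further: growth inhibition of AGS cells, determined with a cell viability assay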
Description: SANGER: Inhibition of human AGS cell growth in a cell viability assay.

[33] = tested on: AU565; conditions: Homo sapiens, AU565;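 further: cell viability assay measuring growth inhibition of human AU565 cells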
Description: SANGER: Inhibition of human AU565 cell growth in a cell viability assay.

[34] = tested on: BEN; conditions: Homo sapiens, BEN;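 further: growth inhibition of the BEN cell line, read out with a cell viability assay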
Description: SANGER: Inhibition of human BEN cell growth in a cell viability assay.

[35] = tested on: BFTC-905; conditions: Homo sapiens, BFTC-905
Description: SANGER: Inhibition of human BFTC-905 cell growth in a cell viability assay.

[36] = tested on: BT-549; conditions: Homo sapiens, BT-549
Description: SANGER: Inhibition of human BT-549 cell growth in a cell viability assay.

[37] = tested on: CAL-72; conditions: Homo sapiens, CAL-72;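 further: cell viability assay measuring inhibition of proliferation in the CAL-72 cell line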
Description: SANGER: Inhibition of human CAL-72 cell growth in a cell viability assay.

[38] = tested on: UACC-62; conditions: Homo sapiens, UACC-62;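 further: growth inhibition of human UACC-62 cells, read out by a cell viability assay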
Description: SANGER: Inhibition of human UACC-62 cell growth in a cell viability assay.

[39] = tested on: UMC-11; conditions: Homo sapiens, UMC-11;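 further: growth inhibition of UMC-11 cells, read out with a cell viability assay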
Description: SANGER: Inhibition of human UMC-11 cell growth in a cell viability assay.

[40] = tested on: CAMA-1; conditions: Homo sapiens, CAMA-1;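 further: growth inhibition of CAMA-1 cells, read out with a cell viability assay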
Description: SANGER: Inhibition of human CAMA-1 cell growth in a cell viability assay.

[41] = tested on: HCT-15; conditions: Homo sapiens, HCT-15;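 further: cell viability readout, IC50 reflecting suppression of HCT-15 cell growth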
Description: SANGER: Inhibition of human HCT-15 cell growth in a cell viability assay.

Structure (SMILES): Cn1cnc2c(F)c(Nc3ccc(Br)cc3Cl)c(C(=O)NOCCO)cc21 [SELUMETINIB]
- pIC50 [1]: 5.50
- pIC50 [2]: < 5.40
- pIC50 [3]: < 5.40
- pIC50 [4]: < 5.40
- pIC50 [5]: < 5.40
- pIC50 [6]: < 5.40
- pIC50 [7]: < 5.40
- pIC50 [8]: 6.06
- pIC50 [9]: < 5.40
- pIC50 [10]: < 5.40
- pIC50 [11]: < 5.40
- pIC50 [12]: < 5.40
- pIC50 [13]: < 5.40
- pIC50 [14]: < 5.40
- pIC50 [15]: < 5.40
- pIC50 [16]: < 5.40
- pIC50 [17]: < 5.40
- pIC50 [18]: < 5.40
- pIC50 [19]: < 5.40
- pIC50 [20]: < 5.40
- pIC50 [21]: < 5.40
- pIC50 [22]: 5.94
- pIC50 [23]: < 5.40
- pIC50 [24]: < 5.40
- pIC50 [25]: < 5.40
- pIC50 [26]: < 5.40
- pIC50 [27]: 5.41
- pIC50 [28]: 7.03
- pIC50 [29]: < 5.40
- pIC50 [30]: < 5.40
- pIC50 [31]: < 5.40
- pIC50 [32]: 5.95
- pIC50 [33]: < 5.40
- pIC50 [34]: < 5.40
- pIC50 [35]: 5.62
- pIC50 [36]: < 5.40
- pIC50 [37]: < 5.40
- pIC50 [38]: < 5.40
- pIC50 [39]: < 5.40
- pIC50 [40]: < 5.40

Structure (SMILES): CCN(CC)CCCCNc1ncc2cc(-c3cc(OC)cc(OC)c3)c(NC(=O)NC(C)(C)C)nc2n1 [PD-173074]
- pIC50 [1]: < 5.70
- pIC50 [2]: < 5.70
- pIC50 [3]: < 5.70
- pIC50 [4]: < 5.70
- pIC50 [5]: < 5.70
- pIC50 [6]: < 5.70
- pIC50 [7]: < 5.70
- pIC50 [8]: < 5.70
- pIC50 [9]: < 5.70
- pIC50 [10]: < 5.70
- pIC50 [11]: 6.07
- pIC50 [12]: < 5.70
- pIC50 [13]: < 5.70
- pIC50 [14]: < 5.70
- pIC50 [15]: < 5.70
- pIC50 [16]: < 5.70
- pIC50 [17]: < 5.70
- pIC50 [18]: < 5.70
- pIC50 [19]: < 5.70
- pIC50 [20]: < 5.70
- pIC50 [21]: < 5.70
- pIC50 [22]: < 5.70
- pIC50 [23]: < 5.70
- pIC50 [24]: < 5.70
- pIC50 [25]: < 5.70
- pIC50 [26]: < 5.70
- pIC50 [27]: < 5.70
- pIC50 [28]: < 5.70
- pIC50 [29]: < 5.70
- pIC50 [30]: < 5.70
- pIC50 [31]: < 5.70
- pIC50 [32]: < 5.70
- pIC50 [33]: < 5.70
- pIC50 [34]: < 5.70
- pIC50 [35]: < 5.70
- pIC50 [36]: < 5.70
- pIC50 [37]: < 5.70
- pIC50 [38]: < 5.70
- pIC50 [39]: < 5.70
- pIC50 [40]: < 5.70

Structure (SMILES): CN(C)C(=N)NC(=N)N [METFORMIN]
- pIC50 [1]: < 1.70
- pIC50 [2]: < 1.70
- pIC50 [3]: 2.49
- pIC50 [4]: < 1.70
- pIC50 [41]: 2.05
- pIC50 [5]: 2.01
- pIC50 [6]: 1.92
- pIC50 [7]: 1.98
- pIC50 [8]: < 1.70
- pIC50 [9]: < 1.70
- pIC50 [13]: 1.77
- pIC50 [14]: < 1.70
- pIC50 [16]: < 1.70
- pIC50 [17]: 2.06
- pIC50 [18]: < 1.70
- pIC50 [20]: 2.34
- pIC50 [21]: < 1.70
- pIC50 [22]: 1.91
- pIC50 [23]: < 1.70
- pIC50 [24]: < 1.70
- pIC50 [25]: 2.04
- pIC50 [26]: 1.95
- pIC50 [27]: < 1.70
- pIC50 [29]: < 1.70
- pIC50 [30]: < 1.70
- pIC50 [32]: 1.80
- pIC50 [34]: 1.81
- pIC50 [35]: 1.93
- pIC50 [36]: 2.38
- pIC50 [37]: 2.20
- pIC50 [39]: < 1.70
- pIC50 [40]: 1.96
